Reference: publication PMC9851200, “Multiparameter phenotypic screening for endogenous TFEB and TFE3 translocation identifies novel chemical series modulating lysosome function” (Autophagy, 2022)
Entries after “also recorded” stand apart in the source; their conditions may differ. Like-named read-outs stand apart in the source and are kept apart here.

Assays:
[1] = tested on: endogenous TFE3; assay: TFE3 nuclear translocation, immunocytochemistry high-content imaging; assay type: cell-based; conditions: for TFE3 %: PKIS2 primary screening; for nTFE3 %: primary screen, 1 µM; for nTFE3 % / EC50 / TFE3 translocation (in words) / Best-Fit Values Span: SH-SY5Y; for Best-Fit Values Span: TFE3 assay concentration response; for Summary: activity in TFE3 assays compared with original NK-140, OT activity
[2] = target: T1, PRKD2 (Homo sapiens, UniProt Q9BZL6); conditions: cited from earlier work
T1 sequence (Q9BZL6 1-878): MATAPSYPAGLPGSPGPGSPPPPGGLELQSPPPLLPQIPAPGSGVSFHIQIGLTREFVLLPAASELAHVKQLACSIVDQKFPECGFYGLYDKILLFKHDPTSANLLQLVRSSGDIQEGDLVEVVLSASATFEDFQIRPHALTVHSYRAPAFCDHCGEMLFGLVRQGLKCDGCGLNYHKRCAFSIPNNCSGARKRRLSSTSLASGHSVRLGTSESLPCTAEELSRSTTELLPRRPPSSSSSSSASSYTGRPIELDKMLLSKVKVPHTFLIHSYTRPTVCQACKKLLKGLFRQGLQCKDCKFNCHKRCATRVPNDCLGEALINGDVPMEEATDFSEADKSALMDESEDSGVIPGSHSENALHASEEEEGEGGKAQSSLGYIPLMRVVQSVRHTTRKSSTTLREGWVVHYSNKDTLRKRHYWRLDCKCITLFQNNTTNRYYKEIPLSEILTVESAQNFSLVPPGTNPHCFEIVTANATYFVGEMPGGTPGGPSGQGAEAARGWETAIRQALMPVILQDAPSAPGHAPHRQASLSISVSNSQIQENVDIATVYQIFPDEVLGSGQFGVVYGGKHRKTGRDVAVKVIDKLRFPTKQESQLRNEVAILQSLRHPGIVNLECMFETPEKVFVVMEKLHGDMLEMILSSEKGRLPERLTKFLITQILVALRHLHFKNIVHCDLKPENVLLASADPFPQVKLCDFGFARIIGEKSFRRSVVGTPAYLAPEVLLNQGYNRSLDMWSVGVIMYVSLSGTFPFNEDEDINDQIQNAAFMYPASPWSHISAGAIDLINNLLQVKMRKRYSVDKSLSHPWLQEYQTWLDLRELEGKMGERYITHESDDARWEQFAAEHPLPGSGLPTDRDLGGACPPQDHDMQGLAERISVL

[3] = target: T2, PRKD1 (Homo sapiens, UniProt Q15139); conditions: cited from earlier work
T2 sequence (Q15139 1-912): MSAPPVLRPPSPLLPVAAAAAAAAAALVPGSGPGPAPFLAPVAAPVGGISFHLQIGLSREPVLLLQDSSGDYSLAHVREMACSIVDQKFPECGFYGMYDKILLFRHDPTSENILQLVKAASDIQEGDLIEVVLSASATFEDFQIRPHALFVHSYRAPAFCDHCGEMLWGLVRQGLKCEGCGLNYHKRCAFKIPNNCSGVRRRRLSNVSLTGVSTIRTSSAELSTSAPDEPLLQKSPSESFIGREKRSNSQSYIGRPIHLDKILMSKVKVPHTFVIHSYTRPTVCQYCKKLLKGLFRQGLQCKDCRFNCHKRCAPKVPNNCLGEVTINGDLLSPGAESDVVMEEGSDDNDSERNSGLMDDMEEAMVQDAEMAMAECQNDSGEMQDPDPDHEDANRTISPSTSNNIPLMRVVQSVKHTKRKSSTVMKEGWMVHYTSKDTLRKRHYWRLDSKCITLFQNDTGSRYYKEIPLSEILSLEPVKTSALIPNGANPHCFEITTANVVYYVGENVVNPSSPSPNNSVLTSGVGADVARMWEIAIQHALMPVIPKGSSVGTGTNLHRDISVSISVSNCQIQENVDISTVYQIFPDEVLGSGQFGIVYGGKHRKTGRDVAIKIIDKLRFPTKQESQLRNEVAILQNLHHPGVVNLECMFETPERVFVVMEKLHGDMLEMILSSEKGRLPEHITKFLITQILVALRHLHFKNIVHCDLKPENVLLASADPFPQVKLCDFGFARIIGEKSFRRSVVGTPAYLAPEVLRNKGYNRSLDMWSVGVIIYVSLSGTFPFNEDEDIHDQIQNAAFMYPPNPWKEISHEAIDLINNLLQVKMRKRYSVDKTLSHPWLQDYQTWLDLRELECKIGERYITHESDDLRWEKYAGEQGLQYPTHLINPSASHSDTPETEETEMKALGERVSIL

[4] = target: CDC42BPG/DMPK2 (Homo sapiens, UniProt Q6DT37); conditions: cited from earlier work
Chain of CDC42BPG/DMPK2 (Q6DT37 whole entry): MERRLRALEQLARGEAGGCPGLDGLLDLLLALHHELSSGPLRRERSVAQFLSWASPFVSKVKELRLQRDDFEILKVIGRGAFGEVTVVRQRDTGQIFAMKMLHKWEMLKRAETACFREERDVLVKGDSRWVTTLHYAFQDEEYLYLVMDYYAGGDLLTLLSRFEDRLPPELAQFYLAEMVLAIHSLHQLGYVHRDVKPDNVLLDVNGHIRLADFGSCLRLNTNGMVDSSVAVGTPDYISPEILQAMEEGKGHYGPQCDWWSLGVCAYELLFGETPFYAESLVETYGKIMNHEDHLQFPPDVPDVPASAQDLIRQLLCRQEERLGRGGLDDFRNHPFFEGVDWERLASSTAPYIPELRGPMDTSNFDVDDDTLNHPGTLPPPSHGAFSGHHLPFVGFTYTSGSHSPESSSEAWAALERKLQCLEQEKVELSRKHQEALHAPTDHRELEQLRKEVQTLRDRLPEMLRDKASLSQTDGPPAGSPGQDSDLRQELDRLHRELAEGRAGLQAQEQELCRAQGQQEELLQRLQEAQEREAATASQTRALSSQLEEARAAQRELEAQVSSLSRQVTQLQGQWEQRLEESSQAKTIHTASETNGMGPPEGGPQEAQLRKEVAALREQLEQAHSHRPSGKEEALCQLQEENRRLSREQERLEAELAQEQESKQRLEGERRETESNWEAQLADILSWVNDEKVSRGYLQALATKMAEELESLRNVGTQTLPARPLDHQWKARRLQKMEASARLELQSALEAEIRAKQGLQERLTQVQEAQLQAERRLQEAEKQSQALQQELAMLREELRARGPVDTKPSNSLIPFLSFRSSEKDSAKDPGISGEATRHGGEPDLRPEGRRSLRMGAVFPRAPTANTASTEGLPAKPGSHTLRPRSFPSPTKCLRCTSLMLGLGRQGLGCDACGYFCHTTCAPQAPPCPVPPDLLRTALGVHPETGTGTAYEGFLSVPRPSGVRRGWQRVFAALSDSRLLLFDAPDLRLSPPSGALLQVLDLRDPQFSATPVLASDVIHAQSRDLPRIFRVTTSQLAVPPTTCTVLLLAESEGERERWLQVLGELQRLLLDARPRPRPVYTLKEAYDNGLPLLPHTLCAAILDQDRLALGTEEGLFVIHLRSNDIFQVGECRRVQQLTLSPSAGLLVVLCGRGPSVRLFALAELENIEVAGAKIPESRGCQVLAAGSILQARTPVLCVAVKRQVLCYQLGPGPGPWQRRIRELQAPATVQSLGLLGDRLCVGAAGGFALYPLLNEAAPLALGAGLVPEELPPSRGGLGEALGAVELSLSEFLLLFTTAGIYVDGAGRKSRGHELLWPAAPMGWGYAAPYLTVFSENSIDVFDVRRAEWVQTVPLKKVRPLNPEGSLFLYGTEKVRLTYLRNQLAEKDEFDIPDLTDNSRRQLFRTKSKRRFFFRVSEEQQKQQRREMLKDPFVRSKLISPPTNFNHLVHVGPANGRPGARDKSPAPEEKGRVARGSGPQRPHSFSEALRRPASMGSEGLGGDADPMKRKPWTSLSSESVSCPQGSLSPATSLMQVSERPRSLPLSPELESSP

[5] = target: CDC42BPB/MRCKB (Homo sapiens, UniProt Q9Y5S2); conditions: cited from earlier work
[6] = target: CIT (Homo sapiens, UniProt O14578); conditions: cited from earlier work
Chain of CIT (O14578 whole entry): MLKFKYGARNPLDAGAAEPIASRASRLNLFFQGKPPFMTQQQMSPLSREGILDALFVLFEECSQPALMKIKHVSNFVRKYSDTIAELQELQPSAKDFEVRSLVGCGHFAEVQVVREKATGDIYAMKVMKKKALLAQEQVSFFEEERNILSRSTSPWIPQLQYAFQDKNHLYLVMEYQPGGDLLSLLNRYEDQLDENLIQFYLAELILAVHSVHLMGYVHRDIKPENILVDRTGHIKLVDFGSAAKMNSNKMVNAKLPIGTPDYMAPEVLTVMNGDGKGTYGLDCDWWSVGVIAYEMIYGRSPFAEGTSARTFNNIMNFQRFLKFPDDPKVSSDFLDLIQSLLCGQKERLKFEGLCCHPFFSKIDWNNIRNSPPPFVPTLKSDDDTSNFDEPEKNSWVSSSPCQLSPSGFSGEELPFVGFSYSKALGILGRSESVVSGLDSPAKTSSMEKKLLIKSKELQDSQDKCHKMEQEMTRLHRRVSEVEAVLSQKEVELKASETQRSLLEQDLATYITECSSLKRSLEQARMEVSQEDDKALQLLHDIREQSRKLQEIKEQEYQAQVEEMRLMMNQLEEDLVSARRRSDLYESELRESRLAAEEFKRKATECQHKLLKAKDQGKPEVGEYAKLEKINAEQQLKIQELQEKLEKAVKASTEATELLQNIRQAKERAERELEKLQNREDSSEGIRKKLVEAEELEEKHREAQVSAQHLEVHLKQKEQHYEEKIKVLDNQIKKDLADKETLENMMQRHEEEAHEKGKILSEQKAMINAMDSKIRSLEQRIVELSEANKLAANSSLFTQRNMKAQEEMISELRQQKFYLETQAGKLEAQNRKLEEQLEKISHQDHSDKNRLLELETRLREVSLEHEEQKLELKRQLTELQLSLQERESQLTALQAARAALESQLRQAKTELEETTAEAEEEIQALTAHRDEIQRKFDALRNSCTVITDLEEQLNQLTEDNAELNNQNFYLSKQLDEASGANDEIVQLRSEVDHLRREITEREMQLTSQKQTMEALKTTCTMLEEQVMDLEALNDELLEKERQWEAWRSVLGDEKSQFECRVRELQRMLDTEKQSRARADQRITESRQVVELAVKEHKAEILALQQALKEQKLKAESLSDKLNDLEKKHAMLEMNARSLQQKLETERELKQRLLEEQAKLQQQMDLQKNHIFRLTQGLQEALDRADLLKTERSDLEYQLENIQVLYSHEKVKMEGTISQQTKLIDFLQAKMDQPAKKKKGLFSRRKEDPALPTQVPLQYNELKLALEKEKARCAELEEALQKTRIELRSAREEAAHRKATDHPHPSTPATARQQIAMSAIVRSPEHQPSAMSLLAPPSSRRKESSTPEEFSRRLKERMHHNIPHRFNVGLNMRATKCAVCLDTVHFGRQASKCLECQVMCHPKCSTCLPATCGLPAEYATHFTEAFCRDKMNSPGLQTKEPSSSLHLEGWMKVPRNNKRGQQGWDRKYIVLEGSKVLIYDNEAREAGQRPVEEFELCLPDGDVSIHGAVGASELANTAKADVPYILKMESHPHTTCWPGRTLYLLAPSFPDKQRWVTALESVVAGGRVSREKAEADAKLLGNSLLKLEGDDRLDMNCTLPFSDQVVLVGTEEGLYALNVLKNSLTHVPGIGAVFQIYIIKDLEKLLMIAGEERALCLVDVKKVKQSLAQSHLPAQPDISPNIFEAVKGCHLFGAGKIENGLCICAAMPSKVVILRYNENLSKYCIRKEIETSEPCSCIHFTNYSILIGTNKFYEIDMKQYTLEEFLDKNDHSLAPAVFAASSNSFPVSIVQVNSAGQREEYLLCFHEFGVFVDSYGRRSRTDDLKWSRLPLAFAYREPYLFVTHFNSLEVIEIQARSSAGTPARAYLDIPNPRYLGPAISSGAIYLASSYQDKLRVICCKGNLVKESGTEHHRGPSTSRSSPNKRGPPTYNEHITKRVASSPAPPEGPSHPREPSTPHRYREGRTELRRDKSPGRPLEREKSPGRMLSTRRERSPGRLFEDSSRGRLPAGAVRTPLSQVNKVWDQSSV

[7] = target: T3, ACVR1B (Homo sapiens, UniProt P36896); conditions: cited from earlier work
T3 sequence (P36896 24-505): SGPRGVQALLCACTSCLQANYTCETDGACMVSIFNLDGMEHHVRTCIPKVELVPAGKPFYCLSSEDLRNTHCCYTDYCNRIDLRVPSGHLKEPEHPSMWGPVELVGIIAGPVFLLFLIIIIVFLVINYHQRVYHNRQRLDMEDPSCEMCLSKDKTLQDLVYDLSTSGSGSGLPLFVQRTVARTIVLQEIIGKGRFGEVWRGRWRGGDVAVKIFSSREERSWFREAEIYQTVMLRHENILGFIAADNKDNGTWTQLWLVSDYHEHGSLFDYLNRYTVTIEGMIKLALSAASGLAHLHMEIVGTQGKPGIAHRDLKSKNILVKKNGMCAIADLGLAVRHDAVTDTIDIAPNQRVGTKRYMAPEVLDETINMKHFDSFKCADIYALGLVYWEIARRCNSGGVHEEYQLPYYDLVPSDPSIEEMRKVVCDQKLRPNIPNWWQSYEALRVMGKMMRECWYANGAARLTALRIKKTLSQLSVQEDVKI

[8] = target: TGFBR2 (Homo sapiens, UniProt P37173); conditions: cited from earlier work
Chain of TGFBR2 (P37173 23-567): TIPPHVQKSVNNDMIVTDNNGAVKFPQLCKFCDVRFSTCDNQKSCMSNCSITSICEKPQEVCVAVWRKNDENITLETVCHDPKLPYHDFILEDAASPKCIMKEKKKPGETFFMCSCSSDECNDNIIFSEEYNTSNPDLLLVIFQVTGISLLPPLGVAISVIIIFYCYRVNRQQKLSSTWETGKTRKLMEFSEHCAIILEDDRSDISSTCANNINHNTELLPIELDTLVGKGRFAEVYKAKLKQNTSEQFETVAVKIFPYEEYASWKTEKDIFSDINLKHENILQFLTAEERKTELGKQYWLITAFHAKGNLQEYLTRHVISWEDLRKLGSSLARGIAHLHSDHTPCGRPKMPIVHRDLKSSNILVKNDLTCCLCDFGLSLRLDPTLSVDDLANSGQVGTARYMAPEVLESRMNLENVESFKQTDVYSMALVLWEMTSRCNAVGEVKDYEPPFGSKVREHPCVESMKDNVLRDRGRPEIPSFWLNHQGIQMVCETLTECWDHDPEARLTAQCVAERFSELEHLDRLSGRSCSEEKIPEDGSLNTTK

[9] = target: CSNK1E (Homo sapiens, UniProt P49674); conditions: cited from earlier work
Chain of CSNK1E (P49674 whole entry): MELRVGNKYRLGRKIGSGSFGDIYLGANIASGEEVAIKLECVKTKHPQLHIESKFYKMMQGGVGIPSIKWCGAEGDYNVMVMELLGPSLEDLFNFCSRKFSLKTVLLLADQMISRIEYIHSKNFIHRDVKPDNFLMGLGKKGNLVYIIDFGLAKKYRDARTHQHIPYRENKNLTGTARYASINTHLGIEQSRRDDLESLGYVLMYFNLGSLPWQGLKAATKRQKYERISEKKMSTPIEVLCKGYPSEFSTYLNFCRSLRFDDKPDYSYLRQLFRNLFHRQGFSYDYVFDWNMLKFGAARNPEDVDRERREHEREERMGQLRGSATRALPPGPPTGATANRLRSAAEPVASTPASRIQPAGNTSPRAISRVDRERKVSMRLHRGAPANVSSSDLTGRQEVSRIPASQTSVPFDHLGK

[10] = target: CSNK1D (Homo sapiens, UniProt P48730); conditions: cited from earlier work
Chain of CSNK1D (P48730 whole entry): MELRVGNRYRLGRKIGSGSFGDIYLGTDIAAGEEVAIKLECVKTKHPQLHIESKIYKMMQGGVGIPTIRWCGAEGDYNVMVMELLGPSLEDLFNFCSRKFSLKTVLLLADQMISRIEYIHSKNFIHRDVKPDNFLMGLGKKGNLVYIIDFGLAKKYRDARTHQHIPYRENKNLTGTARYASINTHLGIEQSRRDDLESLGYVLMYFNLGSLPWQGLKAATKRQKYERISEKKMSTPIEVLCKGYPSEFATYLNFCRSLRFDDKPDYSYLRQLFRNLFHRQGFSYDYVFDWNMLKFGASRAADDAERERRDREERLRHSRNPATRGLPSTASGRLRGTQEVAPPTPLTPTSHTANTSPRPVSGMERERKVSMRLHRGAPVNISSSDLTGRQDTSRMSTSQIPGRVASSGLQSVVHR

[11] = target: PIKFYVE (Homo sapiens, UniProt Q9Y2I7); conditions: cited from earlier work
[12] = target: MTOR (Homo sapiens, UniProt P42345); conditions: cited from earlier work
[13] = tested on: SH-SY5Y cells; assay: AK (adenylate kinase) release ToxiLight cytotoxicity assay; conditions: for AK: PKIS2 primary screening
Method: Total cell lysis with 5 µL 5% Triton-X 100 (Sigma-Aldrich, T8787) is used as a positive control for the assay and toxicity is expressed as a percentage of luminescence under DMSO conditions.

SMILES | TFE3 % [1] | nTFE3 % ([1]; 24 h) | KINOMEscan binding PRKD2 [2] | KINOMEscan binding PRKD1 [3] | KINOMEscan binding CDC42BPG/DMPK2 [4] | KINOMEscan binding CDC42BPB/MRCKB [5] | KINOMEscan binding CIT [6] | KINOMEscan binding ACVR1B [7] | KINOMEscan binding TGFBR2 [8] | KINOMEscan binding CSNK1E [9] | KINOMEscan binding CSNK1D [10] | KINOMEscan binding PIKFYVE [11] | KINOMEscan binding MTOR [12] | AK [13] | Summary [1] | also measured
Cc1cccc(-c2cc(Nc3ccncc3)c3ccccc3n2)n1 [GSK223675] | 9.28% | 9.2% | 96% | 91.1% | 7% | 0% | 23% | 88% | 0% | 50% | 14% | 23% | 7% | 117.83 |  | 
Cc1cccc(-c2nc(Nc3cccc(C(N)=O)c3)c3ccccc3n2)n1 [GW876019] | 17.52% | 17.5% | 66% | 64% | 0% | 32% | 45% | 83% | 15% | 15% | 8% | 16% | 35% | 199.56 |  | 
Cc1cccc(-c2nc(Nc3ccncc3)c3sccc3n2)n1 [GW869641] | 6.93% | 6.9% | 99.6% | 99.3% | 98.5% | 98.5% | 96.6% | 96.5% | 95.6% | 94.9% | 90% | 86% | 75% | 80.75 |  | 
Cc1cccc(-c2nc(Nc3ccc4ncsc4c3)c3ccccc3n2)n1 [NK140] |  |  |  |  |  |  |  |  |  |  |  |  |  |  | Original | EC50 ([1]; Homo sapiens, 24 h treatment, estimated, read-out: Cellular EC50 against TFE3): 0.65 µM; EC50 ([1]; Homo sapiens, TFE3 assay, 24 h, µM, read-out: Best-Fit Values EC50 (converted)): 0.64 µM; TFE3 translocation (in words) ([1]; 24 h treatment): modest TFEB and TFE3 translocation; TFE3 translocation (in words) ([1]; 48 h treatment): induced; also recorded: elevated TFEB and TFE3 translocation; Best-Fit Values Span ([1]; 24 h): 37.55; AK signal (in words) ([13]; SH-SY5Y, 24 h treatment): reduced; Cellular toxicity (AK release and nuclear count, in words) ([13]; SH-SY5Y, 24 h treatment): no increases in DQ Red BSA intensity or cellular toxicity; AK release (in words) ([13]; SH-SY5Y, 48 h treatment): without increases in AK
COc1ccc2nc(-c3cccc(C)n3)nc(Nc3ccncc3)c2c1 [GSK204919] | 7.07% | 7% | 98.8% | 92.4% | 91.1% | 94.1% | 73% |  | 10% | 64% | 49% | 81% | 43% | 106.43 |  | TFE3 translocation (in words) ([1]; 24 h treatment): did not show TFEB and TFE3 activation
Cc1cccc(-c2nc(Nc3ccc4nn(C)cc4c3)c3ccccc3n2)n1 [NK167] |  |  |  |  |  |  |  |  |  |  |  |  |  |  | Weaker, Strong OT activity | EC50 ([1]; TFE3 assay, 24 h, second EC50 of biphasic/bell-shaped fit or OT (off-target) activity, unit inferred, read-out: Best-Fit Values EC50 (converted)): 1.05 µM; EC50 ([1]; TFE3 assay, 24 h, µM, read-out: Best-Fit Values EC50 (converted)): 1.04 µM
Cc1cccc(-c2nc(Nc3ccncc3)c3ccccc3n2)n1 [NK215] |  |  |  |  |  |  |  |  |  |  |  |  |  |  | Weaker | EC50 ([1]; Homo sapiens, 24 h, read-out: Best-Fit Values EC50): 2.04 µM; Best-Fit Values Span ([1]; 24 h): 18.17; KINOMEscan PRKD2 ([2]; PRKD2, Published KINOMEscan, ref original PKIS2 published data): 99; KINOMEscan PRKD1 ([3]; PRKD1, Published KINOMEscan, ref original PKIS2 published data): 86; KINOMEscan CDC42BPG/DMPK2 [4]: 76; KINOMEscan CDC42BPB/MRCKB [5]: 63; KINOMEscan CIT ([6]; CIT, Published KINOMEscan, ref original PKIS2 published data): 91.1; KINOMEscan ACVR1B [7]: 94.3; KINOMEscan TGFBR2 ([8]; TGFBR2, Published KINOMEscan, ref original PKIS2 published data): 95.7; KINOMEscan CSNK1E ([9]; CSNK1E, Published KINOMEscan, ref original PKIS2 published data): 77; KINOMEscan CSNK1D ([10]; CSNK1D, Published KINOMEscan, ref original PKIS2 published data): 73; KINOMEscan PIKFYVE ([11]; kinase PIKFYVE, Published KINOMEscan, ref original PKIS2 published data): 57; KINOMEscan MTOR ([12]; MTOR, Published KINOMEscan, ref original PKIS2 published data): 50
